Patent US20130039956A1, “USE OF NITROCARBOXYLIC ACIDS FOR THE TREATMENT, DIAGNOSIS AND PROPHYLAXIS OF AGGRESSIVE HEALING PATTERNS” (priority 2010, published 2013)

Key:
[1] = system: Murine macrophage-like cells RAW 264.7 and murine L929 fibroblasts; experiment: Monocyte/fibroblast co-culture on coated surgical suture material; format: cell-based; conditions: dip-coated suture material, 24 and 48 hours; compared with native FA
Description: In order to determine immunoreactions to foreign material and its consequence on fibrogenesis, co-cultures of fibroblasts and monocytes were used. Commercially available suture materials (propylene, polyamide, and silk) were dip-coated with corresponding native and nitrated fatty acids. Untreated suture material served as control. Treated and untreated suture materials were out in small pieces and placed in a 96-well plate.
Murine macrophage-like cells RAW 264.7 and murine L929 fibroblasts were cultured to a population density of 5×10(5) each. Cell suspensions were merged achieving a cellularity of approximately 2.5×10(5) cell/ml of each cell population which were added to the wells. The suture material samples were fully covered by the suspension. Wells were continuously and gently shaken throughout the incubation period.
Supernatants were collected for assays after 24 and 48 hours and analyzed for profibrotic cytokines IL-13, IL-4, and IL-6, TGF-β1, collagen I.

TRPV-1 = target: T1, TRPV-1 (Mus musculus, UniProt Q704Y3); experiment: Signal transduction of receptors of the TRP-protein family in retinal slices; format: cell-based, mice; conditions: 10 and 50 μmol, capsaicin 10 μmol or acid pH; compared with native FA
T1 construct: Whole retinas were isolated and cut into 100 μm slices using a tissue slicer; from tissue; host or cells: mouse retinal slices (100 μm)
T1 sequence (Q704Y3 whole entry): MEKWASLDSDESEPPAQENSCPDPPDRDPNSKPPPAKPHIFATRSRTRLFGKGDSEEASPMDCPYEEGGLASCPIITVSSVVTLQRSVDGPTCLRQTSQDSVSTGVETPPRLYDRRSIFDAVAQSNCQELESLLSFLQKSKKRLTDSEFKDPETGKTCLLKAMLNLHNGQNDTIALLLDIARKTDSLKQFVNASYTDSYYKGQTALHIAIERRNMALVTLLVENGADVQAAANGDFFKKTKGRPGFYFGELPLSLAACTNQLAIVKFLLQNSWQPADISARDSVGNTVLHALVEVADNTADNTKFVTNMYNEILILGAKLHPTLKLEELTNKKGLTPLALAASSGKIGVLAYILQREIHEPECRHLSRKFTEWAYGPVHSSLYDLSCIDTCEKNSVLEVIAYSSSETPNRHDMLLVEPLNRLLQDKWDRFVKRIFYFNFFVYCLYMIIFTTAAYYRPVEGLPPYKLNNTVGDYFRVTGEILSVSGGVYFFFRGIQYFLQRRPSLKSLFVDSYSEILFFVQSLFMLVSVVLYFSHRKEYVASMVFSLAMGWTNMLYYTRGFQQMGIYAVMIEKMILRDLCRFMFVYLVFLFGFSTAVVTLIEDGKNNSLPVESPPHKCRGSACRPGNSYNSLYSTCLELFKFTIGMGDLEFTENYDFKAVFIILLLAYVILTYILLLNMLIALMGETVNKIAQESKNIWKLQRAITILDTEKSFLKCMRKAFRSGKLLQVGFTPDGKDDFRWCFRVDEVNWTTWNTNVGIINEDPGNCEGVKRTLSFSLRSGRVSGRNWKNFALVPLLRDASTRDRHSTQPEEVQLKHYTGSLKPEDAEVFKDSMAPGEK
Protocol: In order to determine the effect of nitrated fatty acids on receptor signal transduction, an in vitro model was used. Retinal slices from cadaver mice were prepared as described by Snellman and Nawy (Snellman J. Nawy S (2004). cGMP-dependent kinase regulates response sensitivity of the mouse on bipolar cell. J Neurosci 24:6621-6628). Whole retinas were isolated and cut into 100 μm slices using a tissue slicer and than transferred to the recording chamber. The chamber was continuously perfused with Ames media and oxygenated. Picrotoxin (100 μM), strychnine (10 μM), and TPMPA (50 μM) were added. Each nitro fatty acid was added in two experiments to achieve a final concentration of 10 μmol, and in another two experiments to achieve a final concentration of 50 μmol. In two experiments, the corresponding native fatty acid was added to achieve a final concentration of 10 and 50 μmol, and in two experiments saline solution was added which served as controls. Currents were measured via tissue electrodes and monitored throughout the investigation. After incubating the solution for 2 hours, the TRPV-1 agonist capsaicin was added to achieve a final concentration of 10 μmol. Experiments were performed using either 10 mmol Hepes or 10 mmol Mes adjusting the pH of the solution to 6.4 or 4.4, respectively. Furthermore, experiments were performed without or with preincubation (5 minutes) of the TRPV-1 antagonist capsazepine. The solution temperature was held constant at 35° C.

[2] = system: human corneal fibroblasts; experiment: Model for fibrosis induction (3D corneal stroma, TGF-β1); format: cell-based; conditions: TGF-β1 over 7 days; compared with native FA
Protocol: Cornea injury may ultimately lead to a scar by way of corneal fibrosis, which is characterized by the presence of myofibroblasts and improper deposition of extracellular matrix components (ECM). An established in vitro model to study the healing response to trauma of corneal stroma was used. The in vitro 3-dimensional (3D) model of a corneal stroma was produced by human corneal fibroblasts stimulated with stable vitamin C which mimics corneal development. TGF-β1 was added to the medium over 7 days. […] There were no morphological changes of the myofibroblasts when treated with nitro fatty acids.

[3] = system: Tracheas of adult Wistar rats; experiment: Tissue damage due to barotrauma ex vivo (tracheal rings); format: cell-based; conditions: tracheal rings bathed 15 minutes, balloon 4 atm 4 hours; compared with native FA
Protocol: In order to determine the effects of nitrated fatty acids on mechanical trauma to tracheal cells, an ex vivo model was established. Tracheas of adult Wistar rats sacrificed with thiopental given intraabdominally were carefully resected (harvested). Whole (intact) tracheas were cultured in DMEM 10 (Sigma) supplemented with antibiotic/antimycotic drugs for 48 hours at 37° C. Tracheas were cut into five pieces of equal size. One piece was immediately analyzed, two were bathed in 0.9% saline, one was bathed in a solution containing native fatty acid in SDS (1%), and one was bathed in a solution containing nitro fatty acid, respectively, for 15 minutes each. The inner diameters of the tracheal rings were measured. A non-compliant balloon catheter for use in vascular interventions was chosen, so that the nominal balloon diameter was 15-20% larger than that of the trachea. One tracheal ring pretreated with 0.9% saline was left untreated; the other prepared tracheal rings were mounted on the balloon catheter, which was inflated to a pressure of 4 atm thereafter. Balloons were kept inflated for 4 hours, while being positioned in the culture medium. Thereafter, the tracheal rings were further cultivated in separate vials for 24 hours. In a separate set of investigations, sense/antisense ODNs for HO-1 (Invitrogen) directed against the translation initiation codon in the HO-1 cDNA was used to inhibit hemoxydase-1 synthesis. The cells were transfected using the Superfect transfection reagent (Qiagen) before traumatization. In another set of experiments, the HO inhibitor SnPP IX (Porphyrin Products, London, UK) was added to the culture medium 6 hours before traumatization at a dose of 10 micromol.
For analysis, the rings were cut into small strips using a no touch technique. Viability was tested using a MTT assay and apoptosis using a TUNEL assay. Anti-HO-1 antibodies (StressGen, Tebu, Le-Perray-en-Yvelines, France) were measured by Western blot and immunohistochemistry.
Also: key: 0: not superior to native FA (control); +: Superior to native FA; ++: superior to both; +++: outstanding effect.

Molecule	Relative effect on profibrotic cytokines and collagen I on suture material [1]	Relative effect on TRPV-1 signal transduction (current response) (TRPV-1)	Relative efficacy in model for fibrosis induction [2]	Relative effect on tissue damage due to barotrauma [3]
5-nitro-eicosatrienoic acid [compound 4]	+			
9,10-nitro-cis-oleic acid [compound 10]	+++	++	++	++
9,10-nitro-trans-oleic acid [compound 15]	+		+	+
CCCCCCCC/C=C(/CCCCCCCC(=O)O)[N+](=O)[O-] [compound 1, 9-nitro cis-oleic acid]	++	++	++	++
CCCCC/C=C\C/C(=C\CCCCCCCC(=O)O)[N+](=O)[O-] [compound 2, 10-nitro-cis-linoleic acid]	+++	++	++	+
CCCCCCCC/C(=C/CCCCCCCC(=O)O)[N+](=O)[O-] [compound 3, 10-nitro-cis-oleic acid]	++	++	+	+
CCCCC/C=C(/C/C=C\C/C=C\C/C=C\C/C=C\CCC(=O)O)[N+](=O)[O-] [compound 5, 16-nitro-all-cis-4,7,10,13,16-docosapentaenoic acid]	+			
CC/C=C\C/C=C\C/C=C(/CCCCCCCC(=O)O)[N+](=O)[O-] [compound 6, 9-nitro-all-cis-9-12,15-octadecatrienoic acid]	+	+	++	+
CC/C=C\C/C=C\C/C(=C/C/C=C\C/C=C\CCCCCC(=O)O)[N+](=O)[O-] [compound 7, 14-nitro-all-cis-7,10,13,16,19-docosapentaenoic acid]	+			
CCCCCCCC/C=C(/CCCCCCCCCCCCCC(=O)O)[N+](=O)[O-] [compound 8, 15-nitro-cis-15-tetracosenoic acid]	+		+	+
CCCCCCCC/C=C(\CCCCCCCC(=O)O)[N+](=O)[O-] [compound 9, 9-nitro-trans-oleic acid]	+			
CCCCC=C(C=CC=CCCCCCCCC(=O)O)[N+](=O)[O-] [compound 11, 13-nitro-octadeca-9,11,13-trienoic acid]	0		+	+
CCCCCCCC/C(=C\CCCCCCCC(=O)O)[N+](=O)[O-] [compound 12, 10-nitro-trans-oleic acid]	+			
CCCCCC/C=C(/CCCCCCCC(=O)O)[N+](=O)[O-] [compound 13]	+			
CCCCCC=CCC=C(CC=CCC=CCCCC(=O)O)[N+](=O)[O-] [compound 14, 11-nitro-5,8,11,14-eicosatrienoic acid]	+		+	+
CCCCCC/C=C(\CCCCCCCC(=O)O)[N+](=O)[O-] [compound 16, 9-nitro-9-trans-hexadecenoic acid]	+			
CCCCCCCC/C=C(/CCCCCCCCCCCC(=O)O)[N+](=O)[O-] [compound 17, 13-nitro-cis-13-docosenoic acid]	+			
CCCCC/C=C(/C/C=C\C/C=C(/C/C=C\CCCC(=O)O)[N+](=O)[O-])[N+](=O)[O-] [compound 18, 8,14-nitro-cis-5,8,11,14-eicosatetraenoic acid]	0			
CCC=CCC=C(CC=CCC=CCC=CCC=C(CCC(=O)O)[N+](=O)[O-])[N+](=O)[O-] [compound 19, 4,16-nitro-docosahexaenoic acid]	+			
CCCCCCCCCCC/C=C(/CCCCC(=O)O)[N+](=O)[O-] [compound 21, 6-nitro-cis-6-octadecenoic acid]	+			
CCCCCC=CCC=C(CC=CC/C=C\CCCC(=O)O)[N+](=O)[O-] [compound 22, 11-nitro-cis-5,8,11,14-eicosatetraenoic acid]	+	+	++	+
